According to ChEMBL document CHEMBL1201862, “PubChem BioAssay data set” (2004):
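1) Cells in 96-well plates. 2) Compound, 48 h, 5 concentrations. 3) Linear interpolation between surrounding doses. 4) Unreached endpoint = highest concentration. GI50 is the concentration that inhibits growth by half.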 Calls of active or inactive are those of the source. Cut-off read from the data, not from the text of the source: active = GI50 up to about 1.1 µM and inactive = higher.

How the values were obtained:
Assay in all cases: NCI tumour cell line growth inhibition, 48 h
A498 = system: A498
EKVX = system: EKVX
M19-MEL = system: M19-MEL
OVCAR-5 = system: OVCAR-5
CCRF-CEM = system: CCRF-CEM
SK-MEL-5 = system: SK-MEL-5
Malme-3M = system: Malme-3M
OVCAR-3 = system: OVCAR-3
A549 = system: A549
RXF 393 = system: RXF 393
U-251 = system: U-251
NCI-H522 = system: NCI-H522
SK-MEL-28 = system: SK-MEL-28
SNB-75 = system: SNB-75
MDA-MB-231 = system: MDA-MB-231
MCF7 = system: MCF7
DU-145 = system: DU-145
BT-549 = system: BT-549
SR = system: SR
PC-3 = system: PC-3

Compound | GI50 (A498) | GI50 (EKVX) | GI50 (M19-MEL) | GI50 (OVCAR-5) | GI50 (CCRF-CEM) | GI50 (SK-MEL-5) | GI50 (Malme-3M) | GI50 (OVCAR-3) | GI50 (A549) | GI50 (RXF 393) | GI50 (U-251) | GI50 (NCI-H522) | GI50 (SK-MEL-28) | GI50 (SNB-75) | GI50 (MDA-MB-231) | GI50 (MCF7) | GI50 (DU-145) | GI50 (BT-549) | GI50 (SR) | GI50 (PC-3)
S=C(Nc1ccccc1)Nc1ccccc1SC(/C=C/NNC1=NN=C(c2ccccc2)C(c2ccccc2)N1)c1ccccc1 (stereo unspecified) | > 100 µM (inactive) | > 100 µM (inactive) | > 100 µM (inactive) | > 100 µM (inactive) | 28.5 µM (inactive) | 44.6 µM (inactive) | > 100 µM (inactive) | > 100 µM (inactive) | > 100 µM (inactive) | 8.02 µM (inactive) | > 100 µM (inactive) | 8.85 µM (inactive) | > 100 µM (inactive) | – | – | – | – | – | – | –
CCc1cc(C)cc2[n+]1CC=C2C.[O-][Cl+3]([O-])([O-])[O-] | – | > 100 µM (inactive) | > 100 µM (inactive) | > 100 µM (inactive) | – | > 100 µM (inactive) | 35 µM (inactive) | 93.1 µM (inactive) | > 100 µM (inactive) | 27.3 µM (inactive) | > 100 µM (inactive) | 49.7 µM (inactive) | > 100 µM (inactive) | > 100 µM (inactive) | – | – | – | – | – | –
O=C(CO)C1CC2C=CC1C2 (stereo unspecified) | > 100 µM (inactive) | > 100 µM (inactive) | > 100 µM (inactive) | > 100 µM (inactive) | > 100 µM (inactive) | > 100 µM (inactive) | > 100 µM (inactive) | > 100 µM (inactive) | > 100 µM (inactive) | > 100 µM (inactive) | > 100 µM (inactive) | > 100 µM (inactive) | > 100 µM (inactive) | > 100 µM (inactive) | – | – | – | – | – | –
Cc1c(C(=O)/C=C/c2ccccc2O)c(=O)n(-c2ccccc2)n1C | 27.5 µM (inactive) | 68.7 µM (inactive) | 23.9 µM (inactive) | 66.8 µM (inactive) | 9.55 µM (inactive) | 12.3 µM (inactive) | 19.4 µM (inactive) | 29.2 µM (inactive) | 34 µM (inactive) | 14.2 µM (inactive) | 12.2 µM (inactive) | 18.1 µM (inactive) | 25.1 µM (inactive) | 50.6 µM (inactive) | – | – | – | – | – | –
CCN(CC)/C(=C\Cl)Nc1ccccn1.[O-][Cl+3]([O-])([O-])O | > 100 µM (inactive) | > 100 µM (inactive) | > 100 µM (inactive) | > 100 µM (inactive) | > 100 µM (inactive) | > 100 µM (inactive) | > 100 µM (inactive) | > 100 µM (inactive) | > 100 µM (inactive) | > 100 µM (inactive) | > 100 µM (inactive) | > 100 µM (inactive) | > 100 µM (inactive) | > 100 µM (inactive) | – | – | – | – | – | –
c1ccc2c(c1)OCCOCCOc1ccccc1OCCO2 | > 100 µM (inactive) | 75 µM (inactive) | 41.9 µM (inactive) | 77.3 µM (inactive) | 34.4 µM (inactive) | 68.2 µM (inactive) | 33.1 µM (inactive) | 28.2 µM (inactive) | 71 µM (inactive) | 60.1 µM (inactive) | 34.4 µM (inactive) | 32.7 µM (inactive) | > 100 µM (inactive) | 47.1 µM (inactive) | – | – | – | – | – | –
O=C(CSc1nnc[nH]1)C[P+](c1ccccc1)(c1ccccc1)c1ccccc1 | – | > 100 µM (inactive) | > 100 µM (inactive) | > 100 µM (inactive) | 78.2 µM (inactive) | > 100 µM (inactive) | > 100 µM (inactive) | 74.8 µM (inactive) | > 100 µM (inactive) | 61.4 µM (inactive) | – | 4.25 µM (inactive) | > 100 µM (inactive) | 27.4 µM (inactive) | – | – | – | – | – | –
C/C(=N\Nc1nc2cc(C(F)(F)F)ccc2s1)c1ccccn1 | 1.52 µM (inactive) | 0.0431 µM (active) | – | 2.47 µM (inactive) | 0.0853 µM (active) | 0.338 µM (active) | 0.0622 µM (active) | 0.826 µM (active) | 0.593 µM (active) | 1.36 µM (inactive) | 0.448 µM (active) | 0.111 µM (active) | 0.211 µM (active) | 1.98 µM (inactive) | 0.0555 µM (active) | 0.0753 µM (active) | 0.401 µM (active) | 3.35 µM (inactive) | 0.0624 µM (active) | 1.67 µM (inactive)
COC(=O)[C@@]12C(=O)C=CC(=O)C1C1C(=CC2C)OC2OC3(CCCCC3)OC21 (stereo partly specified) | 17.9 µM (inactive) | 19.7 µM (inactive) | 19.2 µM (inactive) | 14.3 µM (inactive) | 2.52 µM (inactive) | 19.3 µM (inactive) | 20.2 µM (inactive) | 19.6 µM (inactive) | 19.3 µM (inactive) | – | 17.7 µM (inactive) | 9.71 µM (inactive) | 16.9 µM (inactive) | 18.9 µM (inactive) | – | – | – | – | – | –
OC(C1CCC=NN1C(O)(C(F)(F)F)C(F)(F)F)(C(F)(F)F)C(F)(F)F (stereo unspecified) | > 10 µM (inactive) | > 10 µM (inactive) | – | > 10 µM (inactive) | > 10 µM (inactive) | > 10 µM (inactive) | > 10 µM (inactive) | > 10 µM (inactive) | > 10 µM (inactive) | > 10 µM (inactive) | > 10 µM (inactive) | > 10 µM (inactive) | > 10 µM (inactive) | > 10 µM (inactive) | > 10 µM (inactive) | > 10 µM (inactive) | > 10 µM (inactive) | > 10 µM (inactive) | > 10 µM (inactive) | > 10 µM (inactive)
CCOC1=C2C(=O)OC(=O)C2C2CCCCC2=C1 (stereo unspecified) | > 10 µM (inactive) | > 100 µM (inactive) | > 100 µM (inactive) | – | > 100 µM (inactive) | > 100 µM (inactive) | > 100 µM (inactive) | > 100 µM (inactive) | > 100 µM (inactive) | > 100 µM (inactive) | > 100 µM (inactive) | > 100 µM (inactive) | > 100 µM (inactive) | > 100 µM (inactive) | – | – | – | – | – | –
N#Cc1cc2c(cc1Cl)Sc1nnc(Nc3ccccc3)n1S2(=O)=O | 8.32 µM (inactive) | 2.77 µM (inactive) | – | 1.92 µM (inactive) | 1.56 µM (inactive) | 2.43 µM (inactive) | 2.19 µM (inactive) | 1.64 µM (inactive) | 5.94 µM (inactive) | 1.73 µM (inactive) | 1.87 µM (inactive) | 1.89 µM (inactive) | 2.26 µM (inactive) | 3.4 µM (inactive) | 1.91 µM (inactive) | 8.39 µM (inactive) | 2.01 µM (inactive) | 2.47 µM (inactive) | 0.15 µM (active) | 1.74 µM (inactive)
N#CC1=C(N)N(/N=C/c2ccccc2)C(c2ccccc2)C1(C#N)C#N (stereo unspecified) | 15.9 µM (inactive) | 20.2 µM (inactive) | – | 18.7 µM (inactive) | 1.9 µM (inactive) | 14.2 µM (inactive) | 2.07 µM (inactive) | 4.89 µM (inactive) | 18.7 µM (inactive) | 3.39 µM (inactive) | 17.7 µM (inactive) | 4.38 µM (inactive) | 4.79 µM (inactive) | 16.9 µM (inactive) | 17 µM (inactive) | 8.17 µM (inactive) | 16.5 µM (inactive) | 14.6 µM (inactive) | 2.26 µM (inactive) | 16.4 µM (inactive)
COc1c(C)c(C/C=C(\C)CCCCO[Si](c2ccccc2)(c2ccccc2)C(C)(C)C)c(OC)c(OC)c1OC | > 100 µM (inactive) | > 31.6 µM (inactive) | – | > 46.5 µM (inactive) | > 46.5 µM (inactive) | 30.1 µM (inactive) | > 100 µM (inactive) | > 46.5 µM (inactive) | 21.4 µM (inactive) | > 100 µM (inactive) | > 46.5 µM (inactive) | 50.5 µM (inactive) | > 100 µM (inactive) | > 46.3 µM (inactive) | > 100 µM (inactive) | > 46.5 µM (inactive) | 27.9 µM (inactive) | > 46.5 µM (inactive) | 43.2 µM (inactive) | > 85.7 µM (inactive)
O=C1C(c2c(O)[nH]c3ccccc23)=Nc2ccc(Br)cc21 | 4.39 µM (inactive) | 15.1 µM (inactive) | – | 49.3 µM (inactive) | 21.2 µM (inactive) | > 100 µM (inactive) | > 100 µM (inactive) | 99.5 µM (inactive) | 27.2 µM (inactive) | 12.9 µM (inactive) | 19.5 µM (inactive) | 28.5 µM (inactive) | > 100 µM (inactive) | 14.6 µM (inactive) | 23.3 µM (inactive) | 1.24 µM (inactive) | 8.11 µM (inactive) | 28.2 µM (inactive) | 26.5 µM (inactive) | 14.8 µM (inactive)
CC1(C)CCC(C)(C)c2cc(NC(=O)c3ccc(C(=O)O)cc3)ccc21 [TAMIBAROTENE] | 23.7 µM (inactive) | 37.9 µM (inactive) | – | > 51.6 µM (inactive) | 16.8 µM (inactive) | 29.5 µM (inactive) | 17.9 µM (inactive) | 22.4 µM (inactive) | 27 µM (inactive) | 26.9 µM (inactive) | 24.7 µM (inactive) | 36.6 µM (inactive) | > 48.3 µM (inactive) | > 100 µM (inactive) | > 49.1 µM (inactive) | 28.9 µM (inactive) | 23.8 µM (inactive) | 25.7 µM (inactive) | > 69.8 µM (inactive) | 25.8 µM (inactive)
Cc1c(O)c(OC2OC(CO)C(O)C(O)C2O)cc2c1CC[C@@H]1C2(C)C(=O)C[C@]2(C)[C@@H]([C@@](C)(O)C3CCC(C)(C)O3)[C@H](O)C[C@@]12C (stereo partly specified) | > 100 µM (inactive) | > 100 µM (inactive) | – | > 100 µM (inactive) | > 100 µM (inactive) | > 100 µM (inactive) | > 100 µM (inactive) | > 100 µM (inactive) | > 100 µM (inactive) | > 100 µM (inactive) | > 100 µM (inactive) | > 100 µM (inactive) | > 100 µM (inactive) | > 100 µM (inactive) | > 100 µM (inactive) | > 100 µM (inactive) | > 100 µM (inactive) | > 100 µM (inactive) | > 100 µM (inactive) | > 100 µM (inactive)
